Results as given in publication PMC9013261 (Bioorganic Chemistry, 2021).
≈ marks a conversion by molar mass, not a printed value.

How the values were obtained:
3CLpro of SARS-CoV-2 = 3CLpro of SARS-CoV-2 (Severe acute respiratory syndrome coronavirus 2, UniProt P0DTD1); assay: biochemical
Bacillus subtilis 168 = assay: Broth microdilution antibacterial assay; type: cell-based; conditions: Bacillus subtilis, 168, read-out: MIC B. subtilis 168
[1] = test system: Staphylococcus epidermidis ATCC 35984 (methicillin-resistant); assay: Broth microdilution antibacterial assay; type: cell-based; conditions: ATCC35984, read-out: MIC S. epidermidis ATCC 35984
[2] = test system: Pseudomonas aeruginosa PAO1 (chloramphenicol-resistant); assay: Broth microdilution antibacterial assay; type: cell-based; conditions: PAO1, read-out: MIC P. aeruginosa PAO1
[3] = test system: Klebsiella pneumoniae ATCC 10031; assay: Broth microdilution antibacterial assay; type: cell-based; conditions: ATCC10031, read-out: MIC K. pneumonia ATCC 10031

| SMILES | IC50 (3CLpro of SARS-CoV-2) | MIC (Bacillus subtilis 168) | MIC [1] | MIC [2] | MIC [3] |
| --- | --- | --- | --- | --- | --- |
| CCCCCCCCCCCc1cc(O)cc(O)c1 [Compound 3, 5-undecyl-1,3-benzenediol] | > 100 µM | 1 µg/mL (≈ 3.78 µM) | 2 µg/mL (≈ 7.56 µM) | > 64 µg/mL | 8 µg/mL (≈ 30.3 µM) |
| CCCCCCCCCCCCCCc1cc(O)cc(O)c1 [Compound 5, 5-tetradecyl-1,3-benzenediol] | > 100 µM | > 64 µg/mL | > 64 µg/mL | > 64 µg/mL | > 64 µg/mL |
| CCCCCCCC/C=C\CCCc1cc(O)cc(O)c1 [Compound 7, (Z)-5-(trideca-4-enyl)resorcinol] | > 100 µM | 1 µg/mL (≈ 3.44 µM) | 4 µg/mL (≈ 13.8 µM) | > 64 µg/mL | > 64 µg/mL |
